US20030068340A1, “Parenteral formulations of 1-(5-tert-butyl-2-p-tolyl-2H-pyrazol-3-yl)-3-[4-(2-morpholin-4-yl-ethoxy)-naphthalen-1-yl]-urea” (Boehringer Ingelheim Pharmaceuticals, Inc., priority 2001, published 2003)
≈ marks a conversion by molar mass, not a printed value.

What was measured:
[1] = BIRB 796 binding to cyclodextrin (binding isotherm from solubility data), HPBCD; format: physicochemical
Protocol: (§1) The binding affinity for the BIRB 796 interaction with the ligands was evaluated in the following manner:
(§2) where Lt (ligand) is the total HPBCD or SBECD concentration, St is the solubility of BIRB 796 in the presence of ligand, So is the solubility in the absence of ligand, K11 is the binding constant for the 1:1 complex and K12 is the binding constant for the 1:2 complex. Upon rearrangement, these two equations simplify to the following linear equation: [formula]
(§3) A plot of [L]t vs. (StSo)/[Lt] yields the binding affinity according to the above equation.
(§4) FIG. 3 illustrates the binding analysis for the interaction between BIRB 796 and HPBCD at different concentrations. FIG. 4 illustrates the binding analysis for the interaction between BIRB 796 and SBECD at different concentrations. The binding constants were obtained through the slope and intercept values.

[2] = Effect of cyclodextrins on the aqueous solubility of BIRB 796; format: physicochemical; details: for solubility: aqueous
Protocol: Complexing cyclodextrin agents were evaluated as a means to improve the solubility of BIRB 796. The solubility of BIRB 796 was evaluated as a function of the concentrations of underivatized parent β-cyclodextrin (BCD), the alkylated derivatives […]. The results of Table 1 with respect to the solubility of BIRB 796 as a function of HPBCD concentration are illustrated in FIG. 1, and the results of Table 1 with respect to the solubitlity of BIRB 796 as a function of SBECD concentration are shown in FIG. 2.

[3] = Solubility and/or stability of BIRB 796 in pharmaceutically-acceptable solvents; format: physicochemical; details: 30% PEG 400, 40% PG/10% ethanol or aqueous buffer solutions at any pH
[4] = Stability of BIRB 796 in PEG 400 as function of temperature, storage atmosphere and light exposure; format: physicochemical; details: for kobs / t90: PEG 400, C0 = 30 mg/mL; for half-life at 30 mg/mL: solution in PEG 400, PEG 400, C0 = 30 mg/mL
Protocol: The stability of BIRB 796 in PEG 400 was evaluated. An initial BIRB 796 concentration of approximately 30 mg/mL was prepared and the percent of BIRB 796 remaining in the PEG 400 solvent evaluated over an approximately two week time frame for differing conditions. The PEG 400-BIRB 796 mixture was kept under several different conditions: (1) at room temperature (about 23° C.) in ambient air in the dark; (2) at room temperature (about 23° C.) in ambient air in the light; (3) at 40° C. in ambient air; (4) at 40° C. in ambient air, the mixture being imbued with 0.1% sodium metabisulfite, an antioxidant; (5) at 60° C. in ambient air; (6) at 60° C. in an oxygen atmosphere; and (7) at 60° C. in a nitrogen atmosphere.
Rate constants were calculated using linear regression analysis of the data.

[5] = BIRB 796 binding to cyclodextrin (binding isotherm from solubility data), SBECD; format: physicochemical
Protocol: as §1, §2, §3, §4

[6] = system: proinflammatory cytokines, such as tumor necrosis factor (TNF) and interleukin-1 (IL-1); details: disclosed in PCT/US99/29165; cited from earlier work
[7] = 40° C., 0.1% sodium metabisulfite

Cc1ccc(-n2nc(C(C)(C)C)cc2NC(=O)Nc2ccc(OCCN3CCOCC3)c3ccccc23)cc1 [BIRB 796, 1-(5-tert-butyl-2-p-tolyl-2H-pyrazol-3-yl)-3-[4-(2-morpholin-4-yl-ethoxy)-naphthalen-1-yl]-urea]
Binding Constants K1:1 ([1]; 1:1 complex with HPBCD): 675 M⁻¹
Binding Constants K1.2 ([1]; 1:2 complex with HPBCD): 17.5 M⁻¹
solubility ([2]; aqueous cyclodextrin solution, aqueous with cosolvent or surfactant or cyclodextrin, BCD 0.7 % w/v): 44 µg/mL (≈ 83.4 µM)
solubility ([2]; aqueous cyclodextrin solution, aqueous with cosolvent or surfactant or cyclodextrin, BCD 1.4 % w/v): 74 µg/mL (≈ 140 µM)
solubility ([2]; aqueous cyclodextrin solution, aqueous with cosolvent or surfactant or cyclodextrin, BCD 2 % w/v): 87 µg/mL (≈ 165 µM)
solubility ([2]; aqueous cyclodextrin solution, aqueous with cosolvent or surfactant or cyclodextrin, HPBCD 1 % w/v): 24 µg/mL (≈ 45.5 µM)
solubility ([2]; aqueous cyclodextrin solution, aqueous with cosolvent or surfactant or cyclodextrin, HPBCD 2.5 % w/v): 49 µg/mL (≈ 92.9 µM)
solubility ([2]; aqueous cyclodextrin solution, aqueous with cosolvent or surfactant or cyclodextrin, HPBCD 5 % w/v): 137 µg/mL (≈ 260 µM)
solubility ([2]; aqueous cyclodextrin solution, aqueous with cosolvent or surfactant or cyclodextrin, HPBCD 10 % w/v): 233 µg/mL (≈ 442 µM)
solubility ([2]; aqueous cyclodextrin solution, aqueous with cosolvent or surfactant or cyclodextrin, HPBCD 25 % w/v): 1540 µg/mL (≈ 2910 µM)
solubility ([2]; aqueous cyclodextrin solution, aqueous with cosolvent or surfactant or cyclodextrin, SBECD 1 % w/v): 21 µg/mL (≈ 39.8 µM)
solubility ([2]; aqueous cyclodextrin solution, aqueous with cosolvent or surfactant or cyclodextrin, SBECD 2.5 % w/v): 85 µg/mL (≈ 161 µM)
solubility ([2]; aqueous cyclodextrin solution, aqueous with cosolvent or surfactant or cyclodextrin, SBECD 5 % w/v): 156 µg/mL (≈ 296 µM)
solubility ([2]; aqueous cyclodextrin solution, aqueous with cosolvent or surfactant or cyclodextrin, SBECD 10 % w/v): 371 µg/mL (≈ 703 µM)
solubility ([2]; aqueous cyclodextrin solution, aqueous with cosolvent or surfactant or cyclodextrin, SBECD 25 % w/v): 2170 µg/mL (≈ 4120 µM)
solubility ([2]; aqueous solution without cyclodextrin, SBECD 0 % w/v): 0.5 µg/mL (≈ 0.948 µM)
solubility ([2]; aqueous solution without cyclodextrin, no cyclodextrin (0 % w/v)): 3.3 µg/mL (≈ 6.25 µM)
BIRB 796 solubilized by SBECD, more than by HPBCD ([2]; highest cyclodextrin concentration evaluated (25% w/v)): approximately 40%
solubility and/or stability [3]: can not achieve a desirable solubility and/or stability
kobs ([4]; 23° C., air (dark)): -0.00253 day⁻¹
t90 ([4]; 23° C., air (dark)): 41.5 days
kobs ([4]; 23° C., air, light): -0.0078 day⁻¹
t90 ([4]; 23° C., air, light): 13.5 days
kobs [4, 7]: -0.0161 day⁻¹
t90 [4, 7]: 6.52 days
kobs ([4]; 40° C., air): -0.0192 day⁻¹
t90 ([4]; 40° C., air): 5.47 days
kobs ([4]; 60° C., N2): -0.0552 day⁻¹
t90 ([4]; 60° C., N2): 1.90 days
kobs ([4]; 60° C., O2): -0.0772 day⁻¹
t90 ([4]; 60° C., O2): 1.36 days
kobs ([4]; 60° C., air): -0.0587 day⁻¹
t90 ([4]; 60° C., air): 1.79 days
degradation rate under constant light relative to dark ([4]; PEG 400, room temperature (about 23° C.), ambient air): approximately three-times as fast
decomposition in PEG 400 ([4]; over two weeks, 23° C.): significant decomposition was observed
half-life at 30 mg/mL ([4]; 23° C., air (dark)): 274 days
half-life at 30 mg/mL ([4]; 23° C., air, light): 88.8 days
half-life at 30 mg/mL [4, 7]: 43 days
half-life at 30 mg/mL ([4]; 40° C., air): 36.1 days
half-life at 30 mg/mL ([4]; 60° C., N2): 12.6 days
half-life at 30 mg/mL ([4]; 60° C., O2): 8.98 days
half-life at 30 mg/mL ([4]; 60° C., air): 11.8 days
Binding Constants K1:1 ([5]; 1:1 complex with SBECD): 8337 M⁻¹
Binding Constants K1.2 ([5]; 1:2 complex with SBECD): 29.1 M⁻¹
binding affinity of SBECD for BIRB 796 compared with HPBCD ([5]; SBECD versus HPBCD, Table 2): approximately an order of magnitude higher binding affinity
inhibitory activity with respect to proinflammatory cytokines [6]: unexpectedly significant inhibitory activity
